Experimental findings from publication PMC7180456, “Multitarget Anticancer Agents Based on Histone Deacetylase and Protein Kinase CK2 Inhibitors” (Molecules, 2020) are described below.

Read-outs that look alike come from different tables or passages of the source.

For series [1], the system named is HL-60/vinc (vincristine-resistant, P-gp overexpression). The experiment in a line: Cytotoxicity, trypan blue exclusion assay, 24 h. Format: cell-based. The note with it: Homo sapiens, HL60/vinc. An excerpt:
(§1) Taking into consideration the high abundance of CK2 kinase in leukemia and lymphomas, the ability of selected CK2-HDAC dual inhibitors to circumvent MDR was investigated in human leukemia cells of HL-60 line and its doxorubicin-resistant (HL-60/adr, MRP-1 overexpression) and vincristine-resistant (HL-60/vinc, P-gp overexpression) sublines.
(§2) Statistical significance was set at P ≤ 0.05.

In series [2] the test system is HL-60/adr (doxorubicin-resistant, MRP-1 overexpression). As to the kind of experiment: Cytotoxicity, trypan blue exclusion assay, 24 h. It counts as cell-based. The note with it: Homo sapiens, HL60/ADR.
Source text: as §1, §2

Series [3] relates to leukemia cells of HL-60 line. As to the kind of experiment: Cytotoxicity, trypan blue exclusion assay, 24 h. It counts as cell-based. The note with it: Homo sapiens.
Source text: as §1, §2

The target of the next series is T1, HDAC6 (Homo sapiens, UniProt Q9UBN7).
T1 construct: purchased Enzo Life Sciences, Inc
T1 sequence (Q9UBN7 1-1215): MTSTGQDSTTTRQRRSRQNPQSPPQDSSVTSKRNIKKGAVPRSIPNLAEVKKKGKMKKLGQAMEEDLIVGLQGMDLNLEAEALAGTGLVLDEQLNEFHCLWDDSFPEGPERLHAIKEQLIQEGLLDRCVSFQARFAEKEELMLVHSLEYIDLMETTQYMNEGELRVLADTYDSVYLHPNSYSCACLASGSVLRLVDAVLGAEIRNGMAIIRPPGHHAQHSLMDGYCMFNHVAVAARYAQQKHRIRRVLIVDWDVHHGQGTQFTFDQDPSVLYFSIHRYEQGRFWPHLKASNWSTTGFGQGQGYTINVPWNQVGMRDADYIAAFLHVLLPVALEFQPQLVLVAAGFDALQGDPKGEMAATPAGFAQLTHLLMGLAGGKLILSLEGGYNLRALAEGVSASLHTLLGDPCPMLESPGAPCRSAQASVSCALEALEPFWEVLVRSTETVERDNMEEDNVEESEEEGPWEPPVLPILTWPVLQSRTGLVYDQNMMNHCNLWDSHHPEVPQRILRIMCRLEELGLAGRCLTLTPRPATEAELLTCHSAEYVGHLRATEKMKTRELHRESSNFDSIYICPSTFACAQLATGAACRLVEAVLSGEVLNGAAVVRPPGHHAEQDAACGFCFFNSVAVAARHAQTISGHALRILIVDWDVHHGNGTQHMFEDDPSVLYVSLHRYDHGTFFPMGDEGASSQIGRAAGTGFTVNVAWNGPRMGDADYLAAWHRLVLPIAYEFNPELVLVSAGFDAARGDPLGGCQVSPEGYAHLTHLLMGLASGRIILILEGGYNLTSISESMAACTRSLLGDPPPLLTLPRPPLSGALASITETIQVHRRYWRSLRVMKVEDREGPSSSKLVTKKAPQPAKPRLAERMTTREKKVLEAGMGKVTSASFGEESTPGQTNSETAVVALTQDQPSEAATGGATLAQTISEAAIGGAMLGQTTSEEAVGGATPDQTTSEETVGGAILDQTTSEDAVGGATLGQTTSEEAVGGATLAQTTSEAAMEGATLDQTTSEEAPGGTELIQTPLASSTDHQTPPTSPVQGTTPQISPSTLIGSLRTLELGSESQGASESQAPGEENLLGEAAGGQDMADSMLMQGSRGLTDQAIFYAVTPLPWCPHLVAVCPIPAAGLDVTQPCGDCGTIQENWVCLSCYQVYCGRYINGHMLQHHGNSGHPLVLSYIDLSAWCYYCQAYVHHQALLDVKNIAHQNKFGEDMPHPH
The experiment in a line: HDAC6 inhibition, fluorometric method (Enzo Fluorometric Drug Discovery Assay Kit). Format: biochemical. The settings on record: read-out: Inhibitory activity IC50 on HDAC6. The protocol: For this reason, we analyzed the activity of 15 and 19, together with other compounds from the alkyl and triazole series in HDAC6, tested using a fluorometric method (Table 1).
15 µL of HDAC1 (0.4 µg/well) or HDAC6 (0.5 µg/well) were incubated at 37 °C for 30 minutes with 10 µL of inhibitor diluted in 5% DMSO and 25 µL of fluorogenic substrate (0.05 µL/well of 5 mM solution). Reactions were stopped with the developer and trichostatin A, diluted in buffer without BSA, and the plate was incubated at 30 °C for 45 min, followed by measuring the fluorescence (Ex. 360 nm, Em. 450 nm, Fluoroskan, Thermo Scientific).

Series [4] can be described thus: Cytotoxicity, trypan blue exclusion assay, 24 h (pseudonormal cells). The note with it: human, HEK293 embryonic kidney cells (pseudonormal).
Experimental: (§3) Walter Berger, Institute of Cancer Research, Vienna Medical University. Human embryonal kidney cells of HEK293 line were obtained from cell culture collection of R.E. Kavetsky Institute of Experimental Pathology, Oncology and Radiobiology, National Academy of Sciences of Ukraine (Kyiv, Ukraine).
(§4) Cells were seeded (5 × 10^5/mL for leukemia cells and 1 × 10^5/mL for carcinoma cells) into 24-well tissue culture plates (Greiner Bio-one, Frickenhausen, Germany) and were permitted to adhere and grow for 24 h before the experiment. Short-term (24 h) cytotoxic effect of antitumor drugs was studied under the Evolution 300 Trino microscope (Delta Optical, Nowe Osiny, Poland) after cell staining with trypan blue dye (0.1%).
(§5) Final concentration of DMSO in cell culture was 0.5% or less.
(§6) All experiments were performed in triplicate and repeated three times. Statistical analysis of data was conducted in GraphPad Prism 7.0 Software (GraphPad Software, Inc.) using Student’s t test. Statistical significance was set at P ≤ 0.05. Evaluation of LC50 values of each compound was done by built-in functions of GraphPad Prism (non-linear regression, curve fit, [Inhibitor] vs. normalized response - Variable slope).
In another series the test system is Jurkat T-leukemia cells. The experiment in a line: Cytotoxicity, trypan blue exclusion assay, 24 h. The note with it: Homo sapiens.
Series [5] has as its system HL-60, HL-60/adr and HL-60/vinc leukemia cells. As to the kind of experiment: DCFDA assay, hydrogen peroxide production. The note with it: 10 µM and 30 µM, 24 h. Format: cell-based, human. An excerpt:
To reveal potential mechanisms underlying this phenomenon, we studied the impact of the selected compounds on ROS production in both sensitive and MDR cell lines (Figure S8). […] As mitochondria are considered the main source of cellular superoxides, the next aim of our studies was to check whether CK2-HDAC inhibitors induce oxidative stress in tumor cells via depolarization of mitochondria, using the JC-1 assay. However, it was technically impossible to measure JC-1 accumulation on HL-60/adr and HL-60/vinc cells, because JC-1 is a substrate for these ABC-transporter proteins and is actively pumped out into extracellular medium.
Cellular ROS contents were measured by incubating control or drug-treated cells with fluorescent dyes dihydrodichlorofluorescein diacetate (DCFDA, detecting mainly H2O2) and dihydroethidium (DHE, O2^●−-specific) in concentrations of 10 μM at 37 °C for 30 minutes. After incubation with the dyes, cells were washed with PBS and immediately analyzed at FL1 (DCFDA) or FL2 channel (DHE) of FACSCalibur flow cytometer (BD Biosciences, San Jose, CA).

Setting [6] is: Table 2, trypan blue, 24 h, M ± SD, read-out: LC50 Values of Compounds for Cell Line, HL-60/vinc.
The mark [7] stands for this setting: supplement Table 4S, M±SD, read-out: LC50 values of compounds for cell line, HL-60/vinc.
Setting [8] is: Table 2, trypan blue, 24 h, M ± SD, read-out: LC50 Values of Compounds for Cell Line, HL-60/adr.
The mark [9] stands for this setting: supplement Table 4S, M±SD, read-out: LC50 values of compounds for cell line, HL-60/adr.
Setting [10] is: supplement Table 4S, M±SD, read-out: LC50 values of compounds for cell line, HL-60.
Where [11] appears, read: LC50 Values of Compounds for Cell Line, HEK293, Table 2, trypan blue, 24 h, M ± SD.
[12] abbreviates: LC50 values of compounds for cell line, HEK293, supplement Table 4S, M±SD.
Setting [13] is: 24 h, read-out: LC50 Values of Compounds for Cell Line, Jurkat.
Setting [14] is: read-out: LC50 values of compounds for cell line, Jurkat.
Where [15] appears, read: Table 2, trypan blue, 24 h, M ± SD, read-out: LC50 Values of Compounds for Cell Line, HL-60.

Experimental for Jurkat T-leukemia cells: as §3, §4, §5, §6

Consider `CN(C)c1nc2c(Br)c(Br)c(Br)c(Br)c2n1Cc1ccc(C(=O)NO)cc1` [Compound 19, N-Hydroxy-4-((4,5,6,7-tetrabromo-2-(dimethylamino)-1H-benzo[d]imidazol-1-yl)methyl)benzamide], for which the CC50 was 21.7 ± 3.39 µM in series [1] (setting [6]); 26.6 µM in series [1] (setting [7]); 32.3 ± 5.32 µM in series [2] (setting [8]); > 30 µM in series [2] (setting [9]); > 30 µM in series [3] (setting [10]); 24.9 ± 3.8 µM with Jurkat T-leukemia cells (setting [13]). Moreover, the CC50 in the series with Jurkat T-leukemia cells (setting [14]) was 21.8 µM. In addition, the IC50 on HDAC6 stood at 20.6 µM. Moreover, the values for the CC50 at 24 h in series [4] (setting [11]) and in series [4] (setting [12]) were 33.4 ± 11.8 µM and 24.5 µM, respectively.

Turning to `CN(C)c1nc2c(Br)c(Br)c(Br)c(Br)c2n1CCc1cn(CCC(=O)NO)nn1` [Compound 7c, N-Hydroxy-3-(4-(2-(4,5,6,7-tetrabromo-2-(dimethylamino)-1H-benzo[d]imidazol-1-yl)ethyl)-1H-1,2,3-triazol-1-yl)propanamide], the CC50 worked out at 49.5 ± 9.47 µM in series [1] (setting [6]); 17.6 µM in series [1] (setting [7]); 18.6 ± 2.09 µM in series [2] (setting [8]); 16.2 µM in series [2] (setting [9]); 24 ± 8.66 µM in series [3] (setting [15]); 7.67 µM in series [3] (setting [10]). Besides, the CC50 in the series with Jurkat T-leukemia cells (setting [13]) worked out at 16.5 ± 2.33 µM; in the series with Jurkat T-leukemia cells (setting [14]), 10.7 µM. For the same compound, the IC50 on HDAC6 turned out to be 30.7 µM. In addition, the CC50 at 24 h in series [4] (setting [11]) was found to be 42.7 ± 8.65 µM; in series [4] (setting [12]) it was 23.3 µM. Further, the “impact on hydrogen peroxide production” value in series [5] is “hydrogen peroxide burst”.

`O=C(NO)c1ccc(Cn2nc3c(Br)c(Br)c(Br)c(Br)c3n2)cc1` [Compound 15a, N-Hydroxy-4-((tetrabromo-2H-benzo[d][1,2,3]triazol-2-yl)methyl)benzamide]: the CC50 in series [1] (setting [6]) was 36.6 ± 4.74 µM; in series [1] (setting [7]) it was > 30 µM; in series [2] (setting [8]), 32.4 ± 3.44 µM; in series [2] (setting [9]), > 30 µM; in series [3] (setting [15]) it was 34.4 ± 7.89 µM; in series [3] (setting [10]), > 30 µM. For the same compound, the CC50 was 43.6 ± 16.7 µM in the series with Jurkat T-leukemia cells (setting [13]) and > 30 µM with Jurkat T-leukemia cells (setting [14]). Besides, the IC50 at HDAC6 came to 11 µM. Besides, the CC50 at 24 h in series [4] (setting [11]) was 33.7 ± 7.52 µM; in series [4] (setting [12]), > 30 µM.

A word on the IC50: it is the concentration that gives 50% inhibition.
